The source of these data is patent US9708321B2, “Spiro-quinazolinone derivatives and their use as positive allosteric modulators of mGluR4” (Merck Patent GmbH, priority 2013, dated 2017).

Each structure is given as a SMILES string.

The target in this experiment is T1, hmGluR4 (Homo sapiens, UniProt Q14833).
T1 construct: host or cells: HEK293T
T1 sequence (Q14833 33-912): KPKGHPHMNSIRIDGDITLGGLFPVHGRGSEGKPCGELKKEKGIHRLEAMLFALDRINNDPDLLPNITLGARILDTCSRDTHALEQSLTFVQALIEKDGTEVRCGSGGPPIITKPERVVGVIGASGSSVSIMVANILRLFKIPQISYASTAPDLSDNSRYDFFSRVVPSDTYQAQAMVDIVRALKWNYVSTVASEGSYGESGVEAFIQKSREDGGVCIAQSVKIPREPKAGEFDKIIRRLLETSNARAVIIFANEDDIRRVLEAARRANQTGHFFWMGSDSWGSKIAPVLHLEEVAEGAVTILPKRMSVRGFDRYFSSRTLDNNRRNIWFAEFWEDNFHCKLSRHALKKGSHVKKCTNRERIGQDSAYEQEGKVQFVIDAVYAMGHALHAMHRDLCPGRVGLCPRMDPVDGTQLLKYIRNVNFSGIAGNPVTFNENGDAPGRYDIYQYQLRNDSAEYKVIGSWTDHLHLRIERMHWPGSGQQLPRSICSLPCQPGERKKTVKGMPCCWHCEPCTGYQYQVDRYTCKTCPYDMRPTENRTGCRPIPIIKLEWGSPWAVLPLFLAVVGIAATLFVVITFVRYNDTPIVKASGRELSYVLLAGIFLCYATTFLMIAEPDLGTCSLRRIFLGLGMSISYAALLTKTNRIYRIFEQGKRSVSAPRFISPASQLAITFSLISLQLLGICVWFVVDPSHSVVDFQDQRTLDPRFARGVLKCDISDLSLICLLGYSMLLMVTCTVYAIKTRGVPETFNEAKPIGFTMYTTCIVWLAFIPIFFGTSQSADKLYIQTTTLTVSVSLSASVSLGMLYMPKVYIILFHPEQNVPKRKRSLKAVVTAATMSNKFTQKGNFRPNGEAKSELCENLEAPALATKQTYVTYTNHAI
In words: HEK-293 mGluR4 cells cAMP assay with EC20 L-Glutamate (HTRF). To be noted: positive allosteric activity at EC20 L-Glutamate, 10 μM Forskolin, HEK293T mGluR4 cells, cAMP HTRF; read-out: hrmGluR4/HEK293T-hmGluR4 (EC50). The experiment is classed as cell-based. The method, then: II. Biological Assays HEK-293 mGluR4 Cells cAMP Assay with EC20 L-Glutamate
Using mGluR4 suspension cell format, 10 μM Forskolin (final conc.) used to induce the production of cAMP.
Test the positive allosteric activity of the compounds of the invention at EC20 (2.3 μM for mGluR4 and 4.3 μM for mGluR6) L-Glutamate,
cAMP dymanic2 kit is intended for the direct quantitative determination of cAMP and its principle is based on HTRF technology.
• Cells: HEK293T mGluR4 cells from Multispan, cat# C1191a lot# C1191a-040910 • Culture Media: DMEM+GlutaMAX1+10% dialyzed FBS, 100 mM Sodium Pyruvate, 1 ug/ml puromycin. • Glutamine Starvation Media: DMEM without GlutaMax for plating the cells (glutamine starvation overnight). DMEM high Glucose, without phenol red, glutamine, or sodium pyruvate+10% dialyzed FBS, 100 mM Sodium Pyruvate, 1 ug/ml puromycin, 10 mM Hepes. • Hanks' balanced Salt Solution, HBSS from Invitrogen • Greiner 384 well white low volume high base plate (784075) • cAMP dynamic2 from Cisbio Bioassays • Glutamate: L-Glutamaic acid, monosodium salt, Monohydrate, 98%, from Sigma-Aldrich • Cell Preparation: split cells at 80%-90% confluence. The following day, rinse the cells with DMEM without GlutaMax and change to Glutamine Starvation Media. Incubate overnight. Assay: • Prepare compound plate: Perform compound serial dilution (uses Matrix 4341 plate), using the Bravo liquid handling platform protocol (compound serial dilution) which adds DMSO to columns 1-24 (except cols. 3 and 13). Serial dilute compounds located in columns 3 and 13 at a 1:3 ratio; 10 points (10 ul of 3 mM compound into 20 ul DMSO). Use the Bravo liquid handling platform to transfer 1 ul from the serial dilution plate into Matrix 4314 plate to create stamp plates. Prepare Compound Dilution Buffer: • Dilute 20 mM Forskolin (in DMSO) stock solution in HBSS buffer to make a 20 uM solution (forskolin buffer; 2× solution). To the forskolin buffer, add glutamate to a concentration of 8 uM (compound dilution buffer; 2× EC20 glutamate and forskolin). • Using a multidrop, add 50 ul/well of compound dilution buffer to columns 1-22 of the 2 ul compound stamp plate. Columns 23 and 24 receive forskolin buffer containing 400 uM glutamate (EC100 glutamate; 2× solution). Columns 1 and 2 receive compound dilution buffer containing EC20 glutamate, which is the basal control. • Add a glutamate dose response to row P of compound plate. Prepare the dose response by serial diluting glutamate at a 1:3 ratio in forskolin buffer starting at 2 mM glutamate (2×). Dilute the glutamate 9 times and transfer to compound plate. Prepare Cell Plates: • Harvest cells: Rinse cells with pre-warmed HBSS-10 mM HEPES (without Ca Mg) and dissociate the cells from the flask with versene. Centrifuge the cells, remove the supernatant and suspend in pre-warmed HBSS+10 mM Hepes. Count the cells and centrifuge. Remove the supernatant and suspend the cells in HBSS+Hepes (with Ca Mg) at a density of 400,000 cells/ml. Perform Assay: • Dispense 5 ul from the diluted compound plate into Greiner low volume cell plate using the Bravo liquid handling platform. Using a Multidrop with the small tubing cassette, dispense 5 ul of cells (2000 cells/well) onto the compounds contained in the low volume plates. Incubate the cells at 37° C., 5% CO2 for 30 minutes in the incubator. Assay for cAMP: • Prepare cAMP-d2 and anti-cAMP-Crytate according to the instructions for the two step assay (see Cisbio manual) and add 10 ul of the mixed reagent to each well of the assay plate using the Multidrop. Incubate at room temperature for 60 minutes and read on the Envision plate reader using the mGluR low volume cAMP HTRF 384 well protocol.
Background: Changes in cAMP serve as a functional read-out for many G protein-coupled receptors.
With `COc1ccc(N2C(=O)c3ccccc3NC23CN(Cc2ccc(Cl)c(Cl)c2)C3)cc1` [Compound 56, 1-(3,4-Dichlorobenzyl)-3′-(4-methoxyphenyl)-1′H-spiro[azetidine-3,2′-quinazolin]-4′(3′H)-one], the EC50 was less than 1000 nM.
For the compound `CSc1ccc(N2C(=O)c3ccc(Br)cc3NC23CCN(Cc2ccc(F)c(F)c2)CC3)cc1` [Compound 5, 7′-Bromo-1-(3,4-difluorobenzyl)-3′-(4-(methylthio)phenyl)-1′H-spiro[piperidine-4,2′-quinazolin]-4′(3′H)-one], the EC50 was less than 1000 nM.
With `O=C1c2ccc(Br)cc2NC2(CCN(Cc3ccc(F)c(F)c3)CC2)N1c1ccc(C(F)(F)F)cc1` [Compound 52, 7′-Bromo-1-(3,4-difluorobenzyl)-3′-(4-(trifluoromethyl)phenyl)-1′H-spiro[piperidine-4,2′-quinazolin]-4′(3′H)-one], the EC50 is less than 1000 nM.
With `O=C1c2ccc(N3CCOCC3)cc2NC2(CCN(Cc3ccc(F)c(F)c3)CC2)N1c1ccc(OC(F)(F)F)cc1` [Compound 21, 1-(3,4-Difluorobenzyl)-7′-morpholino-3′-(4-(trifluoromethoxy)phenyl)-1′H-spiro[piperidine-4,2′-quinazolin]-4′(3′H)-one], the EC50 is less than 1000 nM.
With `Cn1cccc1CN1CCC2(CC1)Nc1cc(Br)ccc1C(=O)N2c1ccc(OC(F)(F)F)cc1` [Compound 120, 7′-Bromo-1-((1-methyl-1H-pyrrol-2-yl)methyl)-3′-(4-(trifluoromethoxy)phenyl)-1′H-spiro[piperidine-4,2′-quinazolin]-4′(3′H)-one] the figure was 1000 to 10000 nM; with `O=C1c2ccc(Br)cc2NC2(CCN(Cc3ccccc3O)CC2)N1c1ccc(OC(F)(F)F)cc1` [Compound 49, 7′-Bromo-1-(2-hydroxybenzyl)-3′-(4-(trifluoromethoxy)phenyl)-1′H-spiro[piperidine-4,2′-quinazolin]-4′(3′H)-one], less than 1000 nM; with `COc1ccc(N2C(=O)c3ccccc3NC23CN(Cc2ccc(C)cc2)C3)cc1` [Compound 72, 3′-(4-Methoxyphenyl)-1-(4-methylbenzyl)-1′H-spiro[azetidine-3,2′-quinazolin]-4′(3′H)-one], 1000 to 10000 nM.
With `CCOC(=O)c1ccc2c(c1)NC1(CCN(Cc3ccc(F)c(F)c3)CC1)N(c1ccc(OC)cc1)C2=O` [Compound 1, Ethyl 1-(3,4-difluorobenzyl)-3′-(4-methoxyphenyl)-4′-oxo-3′,4′-dihydro-1′H-spiro[piperidine-4,2′-quinazoline]-7′-carboxylate] the figure was less than 1000 nM.
With `COCCOc1ccc(N2C(=O)c3ccc(F)cc3NC23CN(Cc2ccccc2Cl)C3)cc1` [Compound 124, 1-(2-Chlorobenzyl)-7′-fluoro-3′-(4-(2-methoxyethoxyl)phenyl)-1′H-spiro[azetidine-3,2′-quinazolin]-4′(3′H)-one] the figure was 1000 to 10000 nM.
As to `CCOC(=O)c1ccc2c(c1)NC1(CCN(Cc3ccc(F)c(F)c3)CC1)N(c1ccc(OC(F)(F)F)cc1)C2=O` [Compound 29, Ethyl 1-(3,4-difluorobenzyl)-4′-oxo-3′-(4-(trifluoromethoxy)phenyl)-3′,4′-dihydro-1′H-spiro[piperidine-4,2′-quinazoline]-7′-carboxylate], the EC50 was less than 1000 nM.
With `COc1ccc(N2C(=O)c3ccccc3NC23CCN(Cc2ccccc2C#N)CC3)cc1` [Compound 116, 2-((3′-(4-Methoxyphenyl)-4′-oxo-3′,4′-dihydro-1′H-spiro[piperidine-4,2′-quinazolin]-1-yl)methyl)benzonitrile], the EC50 lay within 1000 to 10000 nM.
With `O=C1c2ccc(F)cc2NC2(CN(Cc3ccccc3Cl)C2)N1c1ccc(OC(F)(F)F)cc1` [Compound 70, 1-(2-Chlorobenzyl)-7′-fluoro-3′-(4-(trifluoromethoxy)phenyl)-1′H-spiro[azetidine-3,2′-quinazolin]-4′(3′H)-one] the figure was 1000 to 10000 nM.
